Test [1] deals with T1, Sentrin-specific protease 7 (Homo sapiens, UniProt Q9BQF6).
T1 sequence (Q9BQF6 whole entry): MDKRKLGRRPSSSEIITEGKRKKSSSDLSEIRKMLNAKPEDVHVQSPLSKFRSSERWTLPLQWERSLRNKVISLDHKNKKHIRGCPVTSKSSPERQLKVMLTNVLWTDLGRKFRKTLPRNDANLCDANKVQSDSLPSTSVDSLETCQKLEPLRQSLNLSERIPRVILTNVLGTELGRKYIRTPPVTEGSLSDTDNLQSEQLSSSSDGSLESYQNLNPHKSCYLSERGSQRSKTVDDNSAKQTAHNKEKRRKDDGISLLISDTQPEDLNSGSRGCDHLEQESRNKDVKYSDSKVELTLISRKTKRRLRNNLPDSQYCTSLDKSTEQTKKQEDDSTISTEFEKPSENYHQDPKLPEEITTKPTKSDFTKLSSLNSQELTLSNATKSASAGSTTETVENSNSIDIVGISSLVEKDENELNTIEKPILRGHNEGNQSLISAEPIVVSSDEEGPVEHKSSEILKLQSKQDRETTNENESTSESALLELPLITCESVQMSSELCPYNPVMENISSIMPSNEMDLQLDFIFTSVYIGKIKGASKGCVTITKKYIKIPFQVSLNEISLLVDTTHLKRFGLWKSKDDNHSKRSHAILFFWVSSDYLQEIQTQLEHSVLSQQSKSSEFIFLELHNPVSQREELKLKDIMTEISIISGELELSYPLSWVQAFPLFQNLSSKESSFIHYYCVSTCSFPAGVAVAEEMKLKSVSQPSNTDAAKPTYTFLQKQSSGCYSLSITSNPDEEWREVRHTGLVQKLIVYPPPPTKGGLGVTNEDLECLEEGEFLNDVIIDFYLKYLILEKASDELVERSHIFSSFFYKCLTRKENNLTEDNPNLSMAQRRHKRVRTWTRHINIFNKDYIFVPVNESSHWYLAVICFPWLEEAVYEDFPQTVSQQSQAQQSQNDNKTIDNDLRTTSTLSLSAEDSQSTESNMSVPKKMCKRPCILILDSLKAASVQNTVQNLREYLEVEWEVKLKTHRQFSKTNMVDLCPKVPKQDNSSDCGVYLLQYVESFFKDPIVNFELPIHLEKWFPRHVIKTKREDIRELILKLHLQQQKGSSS
Format: functional.

Test [2] deals with Apoptotic protease-activating factor 1 (Homo sapiens, UniProt O14727). Format: functional.
Sequence of Apoptotic protease-activating factor 1 (O14727 whole entry): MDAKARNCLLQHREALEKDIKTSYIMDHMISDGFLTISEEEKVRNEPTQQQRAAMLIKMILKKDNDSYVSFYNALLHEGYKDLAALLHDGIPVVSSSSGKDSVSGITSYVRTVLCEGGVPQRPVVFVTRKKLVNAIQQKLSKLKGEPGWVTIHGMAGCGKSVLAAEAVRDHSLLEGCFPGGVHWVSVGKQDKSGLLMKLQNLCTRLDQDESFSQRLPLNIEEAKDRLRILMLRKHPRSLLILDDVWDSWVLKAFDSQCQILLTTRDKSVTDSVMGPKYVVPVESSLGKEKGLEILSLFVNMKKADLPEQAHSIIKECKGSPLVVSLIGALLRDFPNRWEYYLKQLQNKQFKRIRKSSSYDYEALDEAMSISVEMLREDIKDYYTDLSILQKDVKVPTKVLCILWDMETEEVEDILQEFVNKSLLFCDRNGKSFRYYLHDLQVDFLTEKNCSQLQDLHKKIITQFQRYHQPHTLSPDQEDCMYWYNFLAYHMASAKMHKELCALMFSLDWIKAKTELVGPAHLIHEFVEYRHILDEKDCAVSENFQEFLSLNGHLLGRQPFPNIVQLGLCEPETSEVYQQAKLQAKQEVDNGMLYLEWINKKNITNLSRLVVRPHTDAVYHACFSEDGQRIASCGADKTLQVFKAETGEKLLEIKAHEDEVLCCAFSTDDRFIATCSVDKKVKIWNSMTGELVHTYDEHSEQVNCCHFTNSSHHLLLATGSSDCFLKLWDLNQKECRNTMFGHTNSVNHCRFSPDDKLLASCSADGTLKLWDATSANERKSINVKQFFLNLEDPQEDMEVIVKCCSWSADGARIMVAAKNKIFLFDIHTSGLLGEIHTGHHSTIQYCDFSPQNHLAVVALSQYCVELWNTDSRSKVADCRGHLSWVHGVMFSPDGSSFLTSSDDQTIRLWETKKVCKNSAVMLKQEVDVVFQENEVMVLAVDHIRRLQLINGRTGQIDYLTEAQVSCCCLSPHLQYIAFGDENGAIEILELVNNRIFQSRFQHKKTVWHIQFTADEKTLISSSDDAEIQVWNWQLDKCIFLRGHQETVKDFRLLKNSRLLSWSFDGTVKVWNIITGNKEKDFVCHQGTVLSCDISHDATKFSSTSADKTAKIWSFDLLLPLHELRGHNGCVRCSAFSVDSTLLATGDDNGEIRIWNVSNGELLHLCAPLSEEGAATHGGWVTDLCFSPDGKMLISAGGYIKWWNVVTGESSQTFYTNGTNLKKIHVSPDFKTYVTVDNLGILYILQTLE
For test [3], the target named is T2, Sentrin-specific protease 8 (Homo sapiens, UniProt Q96LD8).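 Further: luminescence read-out of SENP8 inhibition, dose-response confirmation following an ultra-high-throughput screen.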
T2 sequence (Q96LD8 whole entry): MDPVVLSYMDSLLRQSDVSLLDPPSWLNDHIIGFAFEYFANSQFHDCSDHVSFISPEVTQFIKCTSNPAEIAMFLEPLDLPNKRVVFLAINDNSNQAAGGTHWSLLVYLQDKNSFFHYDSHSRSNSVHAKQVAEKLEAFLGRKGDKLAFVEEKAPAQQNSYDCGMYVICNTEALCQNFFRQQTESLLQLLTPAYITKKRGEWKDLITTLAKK
Format: functional.

Test [4] concerns the target T3, Sentrin-specific protease 6 (Homo sapiens, UniProt Q9GZR1).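 Further: Luminescence-based dose-response confirmatory assay of SENP6 inhibition, following up an ultra-high-throughput screen.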
T3 sequence (Q9GZR1 whole entry): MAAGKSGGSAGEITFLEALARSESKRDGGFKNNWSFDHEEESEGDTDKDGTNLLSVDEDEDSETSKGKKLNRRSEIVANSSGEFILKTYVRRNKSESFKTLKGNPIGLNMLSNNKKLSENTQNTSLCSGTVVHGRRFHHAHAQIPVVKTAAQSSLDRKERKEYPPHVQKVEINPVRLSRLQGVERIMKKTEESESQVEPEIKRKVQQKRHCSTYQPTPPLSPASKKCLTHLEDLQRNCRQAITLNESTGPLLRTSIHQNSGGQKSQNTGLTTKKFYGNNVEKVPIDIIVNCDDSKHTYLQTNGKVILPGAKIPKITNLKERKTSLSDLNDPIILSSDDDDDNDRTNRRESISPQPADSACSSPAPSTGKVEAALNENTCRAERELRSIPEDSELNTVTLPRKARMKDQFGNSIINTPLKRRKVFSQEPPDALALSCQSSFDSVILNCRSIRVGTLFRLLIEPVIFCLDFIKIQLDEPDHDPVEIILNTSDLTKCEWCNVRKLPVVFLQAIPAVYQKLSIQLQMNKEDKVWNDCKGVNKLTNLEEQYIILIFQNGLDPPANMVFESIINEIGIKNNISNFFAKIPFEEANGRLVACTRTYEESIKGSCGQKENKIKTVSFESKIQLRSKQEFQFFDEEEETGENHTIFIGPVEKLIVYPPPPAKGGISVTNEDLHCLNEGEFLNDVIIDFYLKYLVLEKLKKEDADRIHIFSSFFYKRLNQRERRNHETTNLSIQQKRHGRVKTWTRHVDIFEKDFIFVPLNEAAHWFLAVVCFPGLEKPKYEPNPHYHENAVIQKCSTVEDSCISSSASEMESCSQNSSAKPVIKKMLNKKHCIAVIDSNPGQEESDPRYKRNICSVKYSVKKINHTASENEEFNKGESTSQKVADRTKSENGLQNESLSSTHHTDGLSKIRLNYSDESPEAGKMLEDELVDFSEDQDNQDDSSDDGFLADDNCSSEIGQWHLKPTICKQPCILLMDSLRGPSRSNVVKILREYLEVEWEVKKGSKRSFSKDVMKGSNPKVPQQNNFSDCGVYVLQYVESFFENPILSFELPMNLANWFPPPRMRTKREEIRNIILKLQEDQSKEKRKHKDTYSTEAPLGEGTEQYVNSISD
Type of test: functional.

A further test has as its target T4, Caspase-3 (Homo sapiens, UniProt P42574).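 Further: Dose-response selectivity test against caspase-3 for candidate inhibitors of sentrin-specific proteases (SENPs).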
T4 sequence (P42574 whole entry): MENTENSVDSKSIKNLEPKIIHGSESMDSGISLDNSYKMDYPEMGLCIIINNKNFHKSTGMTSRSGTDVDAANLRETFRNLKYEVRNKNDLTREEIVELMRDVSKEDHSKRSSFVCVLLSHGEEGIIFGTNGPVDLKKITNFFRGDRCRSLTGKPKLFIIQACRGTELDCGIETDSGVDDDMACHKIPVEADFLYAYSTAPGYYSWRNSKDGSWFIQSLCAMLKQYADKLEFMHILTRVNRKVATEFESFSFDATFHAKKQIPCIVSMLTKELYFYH
Type of test: functional.

For test [5], the target named is T5, Microphthalmia-associated transcription factor (Homo sapiens, UniProt O75030).
T5 sequence (O75030 whole entry): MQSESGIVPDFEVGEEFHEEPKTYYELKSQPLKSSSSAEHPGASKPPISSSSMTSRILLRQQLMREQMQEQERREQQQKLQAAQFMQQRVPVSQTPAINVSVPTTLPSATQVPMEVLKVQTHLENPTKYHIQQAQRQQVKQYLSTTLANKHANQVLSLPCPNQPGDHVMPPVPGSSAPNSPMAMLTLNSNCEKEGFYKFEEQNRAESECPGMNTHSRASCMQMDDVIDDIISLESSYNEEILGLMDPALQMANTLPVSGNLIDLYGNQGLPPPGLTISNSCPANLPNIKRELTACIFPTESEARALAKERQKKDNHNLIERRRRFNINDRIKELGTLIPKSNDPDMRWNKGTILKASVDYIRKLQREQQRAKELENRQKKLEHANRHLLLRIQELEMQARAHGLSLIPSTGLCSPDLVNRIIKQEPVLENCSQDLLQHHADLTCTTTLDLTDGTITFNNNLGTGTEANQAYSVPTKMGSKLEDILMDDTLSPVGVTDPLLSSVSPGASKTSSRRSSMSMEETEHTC
Nature of the test: reducers of TRPM1 reporter luminescence, concentration series – cell-based, SK-MEL-5, cherry-picked, set 3, MITF inhibitor project, dose response (AID 493073).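 Further: SK-MEL-5 melanoma cells with luciferase driven by the MITF target TRPM1 promoter.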 Type of test: functional.

Test [6] concerns the target G-protein coupled receptor 35 (Homo sapiens, UniProt Q9HC97). Nature of the test: inhibition of zaprinast-stimulated GPR35 beta-arrestin translocation – imaging, U2OS, beta-arrestin-GFP, zaprinast agonist, primary screen (AID 2058).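 Further: antagonist potency meaning inhibition of agonist-induced arrestin redistribution.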 Type of test: functional.
The target of test [7] is Beta-lactamase (Pseudomonas aeruginosa, UniProt Q79MP6).
Sequence of Beta-lactamase (Pseudomonas aeruginosa, UniProt Q79MP6) (Q79MP6 whole entry): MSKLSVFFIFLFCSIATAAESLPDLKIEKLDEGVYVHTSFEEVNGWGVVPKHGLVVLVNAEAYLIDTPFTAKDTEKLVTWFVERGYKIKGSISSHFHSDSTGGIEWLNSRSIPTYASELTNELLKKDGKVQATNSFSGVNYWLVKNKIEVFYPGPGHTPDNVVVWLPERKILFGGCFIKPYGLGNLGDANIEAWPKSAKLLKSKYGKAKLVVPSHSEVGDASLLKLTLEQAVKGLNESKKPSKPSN
In test [8] the target is T6, Calpain-2 catalytic subunit (Sus scrofa, UniProt P43367).
T6 sequence (P43367 whole entry): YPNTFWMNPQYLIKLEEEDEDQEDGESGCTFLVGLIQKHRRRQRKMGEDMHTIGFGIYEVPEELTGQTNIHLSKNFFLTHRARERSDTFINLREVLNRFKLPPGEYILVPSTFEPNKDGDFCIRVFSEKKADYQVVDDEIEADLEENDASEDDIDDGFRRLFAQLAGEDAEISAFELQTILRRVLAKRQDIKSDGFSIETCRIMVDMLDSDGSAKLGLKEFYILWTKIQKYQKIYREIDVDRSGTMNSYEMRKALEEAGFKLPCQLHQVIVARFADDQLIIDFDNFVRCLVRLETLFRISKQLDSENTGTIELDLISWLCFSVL
Nature of the test: m-calpain protease blockers, concentration series – biochemical, fluorogenic peptide substrate, dose response (AID 1420). Type of test: functional.

In test [9] the target is Beta-lactamase (Salmonella choleraesuis (strain SC-B67), UniProt Q5J463).
Sequence of Beta-lactamase (Salmonella choleraesuis (strain SC-B67), UniProt Q5J463) (Q5J463 whole entry): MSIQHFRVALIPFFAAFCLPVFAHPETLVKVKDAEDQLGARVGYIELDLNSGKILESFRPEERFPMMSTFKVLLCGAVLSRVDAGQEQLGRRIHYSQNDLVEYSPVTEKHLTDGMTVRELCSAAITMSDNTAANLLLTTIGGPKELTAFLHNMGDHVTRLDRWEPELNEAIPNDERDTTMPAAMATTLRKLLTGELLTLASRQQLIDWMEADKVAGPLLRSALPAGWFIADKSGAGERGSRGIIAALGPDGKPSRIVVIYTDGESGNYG
Test [10] can be described thus: mitochondrial function rescue without frataxin homolog – Friedreich's ataxia, plus single-dose screen, dose response (AID 1465).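 Further: yeast depleted of Yfh1p frataxin homolog grown on glycerol needing respiration; WST-1 tetrazolium dye reduction as measure of cellular dehydrogenase metabolic activity.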 Type of test: functional.
Test [11] addresses T7, Insulin-degrading enzyme (Homo sapiens, UniProt P14735).
T7 sequence (P14735 whole entry): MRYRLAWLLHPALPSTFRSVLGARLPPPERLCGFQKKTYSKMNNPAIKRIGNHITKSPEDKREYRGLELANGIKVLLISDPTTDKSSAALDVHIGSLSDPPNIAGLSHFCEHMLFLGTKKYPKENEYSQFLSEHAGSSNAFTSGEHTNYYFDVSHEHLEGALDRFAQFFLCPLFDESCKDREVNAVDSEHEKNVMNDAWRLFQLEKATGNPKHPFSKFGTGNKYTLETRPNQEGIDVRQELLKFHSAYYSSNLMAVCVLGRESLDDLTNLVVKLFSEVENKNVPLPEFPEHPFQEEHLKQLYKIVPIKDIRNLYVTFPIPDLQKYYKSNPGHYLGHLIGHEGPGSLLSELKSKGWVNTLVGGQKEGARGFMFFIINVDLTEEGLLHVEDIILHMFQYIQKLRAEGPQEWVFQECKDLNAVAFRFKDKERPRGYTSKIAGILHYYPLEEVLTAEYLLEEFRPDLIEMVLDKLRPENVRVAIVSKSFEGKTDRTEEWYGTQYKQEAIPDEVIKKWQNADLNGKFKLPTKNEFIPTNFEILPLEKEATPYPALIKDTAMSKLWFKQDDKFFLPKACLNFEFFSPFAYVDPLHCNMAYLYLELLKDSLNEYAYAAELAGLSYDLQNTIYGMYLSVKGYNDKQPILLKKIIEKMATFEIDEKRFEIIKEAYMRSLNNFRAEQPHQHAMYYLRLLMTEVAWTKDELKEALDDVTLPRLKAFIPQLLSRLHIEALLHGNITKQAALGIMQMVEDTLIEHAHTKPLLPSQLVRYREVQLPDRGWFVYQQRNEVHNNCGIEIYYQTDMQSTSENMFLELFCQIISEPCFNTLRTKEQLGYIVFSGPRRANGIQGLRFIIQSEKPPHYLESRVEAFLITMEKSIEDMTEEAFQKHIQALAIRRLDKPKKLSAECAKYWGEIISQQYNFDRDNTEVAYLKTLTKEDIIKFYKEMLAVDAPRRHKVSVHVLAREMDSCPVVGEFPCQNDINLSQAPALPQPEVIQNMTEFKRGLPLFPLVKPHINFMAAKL
Nature of the test: cellular IDE activation of Abeta substrate cleavage – fluorescence polarization, HEK cells, dose response (AID 588439). Format: functional, cell-based. (In general: Fluorescence polarisation rises when a labelled molecule tumbles more slowly, as on binding a larger partner.)

Test [12] relates to HEK293. Nature of the test: optical interference in Abeta FP readout, dose response, artefact control for IDE activator project, biochemical, fluorescence polarization (AID 588442). Type of test: functional, cell-based. The conditions noted are these: Homo sapiens.
The subject of test [13] is HEK293. Nature of the test: membrane integrity loss in HEK cells – cell-based, fluorescence, cytotoxicity control for IDE activator project, dose response (AID 588440).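 Further: cytotoxicity by LDH release measuring loss of membrane integrity.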 Format: functional. The conditions noted are these: Homo sapiens.
Test [14] addresses T7, Insulin-degrading enzyme. Nature of the test: recombinant IDE activation, cell-free – biochemical, fluorescence polarization, counter-screen for IDE activator project, dose response (AID 588681).

The source made the active and inactive calls.

In ChEMBL document CHEMBL1201862, “PubChem BioAssay data set” (2004) one finds IC50, AC50 and EC50 data, which are given here for four molecules.

Sequence of G-protein coupled receptor 35 (Q9HC97 whole entry): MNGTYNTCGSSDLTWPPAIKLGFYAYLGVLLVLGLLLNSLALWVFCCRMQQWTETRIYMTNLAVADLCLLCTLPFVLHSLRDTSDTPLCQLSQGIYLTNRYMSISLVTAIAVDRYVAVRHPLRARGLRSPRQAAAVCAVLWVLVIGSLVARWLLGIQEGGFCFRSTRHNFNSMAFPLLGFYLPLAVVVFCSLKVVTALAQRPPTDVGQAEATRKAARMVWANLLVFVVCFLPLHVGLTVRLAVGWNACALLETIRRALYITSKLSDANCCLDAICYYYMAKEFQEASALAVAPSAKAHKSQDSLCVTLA

For orientation: IC50 means the concentration at which inhibition is half-maximal. Broadly, the AC50 is the concentration giving half of the maximal activity seen. In the case of `CC(=O)NC1=C(N(C)C2CCS(=O)(=O)C2)C(=O)c2ccccc2C1=O` (stereo not given), the IC50 is 13 µM (active) in test [1]; 22 µM (active) in [2]; 13.4 µM (active) in test [3]; 5.25 µM (active) in [4]; 17 µM (active) on Caspase-3. Also, the concentration at half-maximal activity (AC50) in test [5] was 21.2 µM (active).

Broadly, the EC50 is the concentration giving half of the maximal effect. As for `CCN1CCN(C2=CC3=CC(=C(C#N)C#N)CCC3CC2)CC1` (stereo not given), the IC50 in test [6] is 1.67 µM (active); at Beta-lactamase [7], 4.22 µM (active); in [8] it was 30.6 µM (not active); on Beta-lactamase [9] it was 3.08 µM (active); in the test with HEK293 [13] it was > 89.2 µM (inactive). Besides, the 50% effective concentration (EC50) in test [10] is > 100 µM (active); on Insulin-degrading enzyme [11] it was > 54.7 µM (inactive); with HEK293 [12], > 54.7 µM (inactive); at Insulin-degrading enzyme [14] it was > 54.7 µM (inactive).

As for `CC(=O)N1CCc2cc(S(=O)(=O)NCCC(=O)N3CCN(Cc4ccccc4)CC3)ccc21`, the EC50 at Insulin-degrading enzyme [11], in the test with HEK293 [12] and on Insulin-degrading enzyme [14] was > 54.7 µM (inactive) each time. Moreover, the IC50 in the test with HEK293 [13] is > 89.2 µM (inactive).

Regarding `O=C(O)c1cccc(NC2=C(N3CCOCC3)C(=O)c3ccccc3C2=O)c1`, in [2], the half-maximal inhibitory concentration (IC50) was 14.8 µM (active).
